The values that follow come from PMC6021035, “Insights into biological activity of ureidoamides with primaquine and amino acid moieties” (Journal of Enzyme Inhibition and Medicinal Chemistry, 2018).

Converted amounts (≈) assume the structure as drawn.

The test system of the experiment is E. coli. Description: MIC determination, E. coli as summarised in text. The format is cell-based. As to conditions: Escherichia coli, both strains. The protocol:
Before analysis, compounds 5a–f were dissolved in 96% ethanol in a concentration of 2 mg/ml as stock solutions. Inoculums were prepared with fresh cultures of microbial strains, cultured on tryptic-soy agar or Sabouraud 2% (m/v) dextrose agar for 18 h (48–72 h for fungi) at 30 °C with physiological saline containing approximately […]. Inoculum density (0.5 McFarland units) was adjusted with a bio Mériex (France) densitometer. Minimum inhibitory concentration (MIC) was determined by the twofold micro-dilution method in Mu¨ller–Hinton broth for bacterial strains and RPMI 1640 + 2% m/v dextrose for fungi according to the EUCAST recommendations in a sterile 96-well flat-bottom plastic tissue culture plate. MIC was determined using a linear regression curve after incubation of compounds and reading the optical density at 570 nm using an iEMS microplate reader. […] All tests were performed in triplicate and expressed as the mean.

`COc1cc(NC(C)CCCNC(=O)NC(C(=O)NC(c2ccccc2)c2ccc(Cl)cc2)c2ccc(Cl)cc2)c2ncccc2c1` (stereo not shown) [Compound 5e, 2–(4-chlorophenyl)-N-[(4-chlorophenyl)(phenyl)methyl]-2-[({4-[(6-methoxyquinolin-8-yl)amino]pentyl}carbamoyl)amino]acetamide] showed a minimal inhibitory concentration (MIC) of 45 to 60 µg/mL (≈ 67.1 to 89.5 µM).
